Results reported in paper PMC11284788, “NN1213 – A Potent, Long-Acting, and Selective Analog of Human Amylin” (Journal of Medicinal Chemistry, 2024).
pEC50, pIC50: −log10 of the molar value. Read-outs that look alike come from different tables or passages of the source. Numbered stars: 1 amine (or outer) side, 2 acyl side, 3 side chain; on linkers, the order of the positions; unused ones are H or OH. Bridge positions count the residues as written; N and C are the ends. Side chains are listed from the residue outwards. Peptide text beside a SMILES is read from it. * marks the point of attachment. C20 diacid = O=C(O)CCCCCCCCCCCCCCCCCCC(=O)*; γGlu = O=C(O)[C@H](CCC(=O)[*:2])N[*:1]; AEEA = NCCOCCOCC(=O)O

Columns and labels:
rat AMY3R = target: T1, rat AMY3R (Rattus norvegicus, UniProt P32214+Q9JJ73); test: cAMP FlashPlate assay, rat AMY3R; format: cell-based; conditions: ratio of cAMP EC50 values
T1 construct: expressed in transfected cells; host or cells: BHK tk-ts 13, transient co-transfection (FuGENE 6)
T1 sequence (P32214 25-479 isoform P32214-2 limits assumed): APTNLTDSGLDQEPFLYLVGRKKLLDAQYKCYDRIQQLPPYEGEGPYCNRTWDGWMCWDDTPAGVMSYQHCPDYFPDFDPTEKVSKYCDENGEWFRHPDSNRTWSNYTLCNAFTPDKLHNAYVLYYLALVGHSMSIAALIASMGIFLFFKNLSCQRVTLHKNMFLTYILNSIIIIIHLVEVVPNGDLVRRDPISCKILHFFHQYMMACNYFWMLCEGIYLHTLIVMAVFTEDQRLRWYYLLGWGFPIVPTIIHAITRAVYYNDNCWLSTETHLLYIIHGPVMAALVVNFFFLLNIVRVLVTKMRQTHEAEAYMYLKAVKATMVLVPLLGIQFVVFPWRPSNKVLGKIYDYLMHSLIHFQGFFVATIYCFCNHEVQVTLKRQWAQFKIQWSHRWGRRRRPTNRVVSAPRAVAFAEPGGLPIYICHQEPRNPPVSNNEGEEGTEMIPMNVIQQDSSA
T1 sequence (Q9JJ73 23-147 partner): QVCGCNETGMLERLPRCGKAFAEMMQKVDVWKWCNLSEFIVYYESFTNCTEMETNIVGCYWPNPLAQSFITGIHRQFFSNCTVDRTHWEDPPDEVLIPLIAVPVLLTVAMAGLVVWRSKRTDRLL

hCTR [1] = target: T2, hCTR (Homo sapiens, UniProt P30988); test: scintillation proximity binding assay, hCTR membranes; set-up: expressed in transfected cells; host or cells: BHK tk-ts 13, transient (FuGENE 6); membranes for the SPA, whole cells for the species-specific assays; conditions: for hCTR pIC50: SPA binding assay, Tables S13 and S15
T2 sequence (P30988 25-474): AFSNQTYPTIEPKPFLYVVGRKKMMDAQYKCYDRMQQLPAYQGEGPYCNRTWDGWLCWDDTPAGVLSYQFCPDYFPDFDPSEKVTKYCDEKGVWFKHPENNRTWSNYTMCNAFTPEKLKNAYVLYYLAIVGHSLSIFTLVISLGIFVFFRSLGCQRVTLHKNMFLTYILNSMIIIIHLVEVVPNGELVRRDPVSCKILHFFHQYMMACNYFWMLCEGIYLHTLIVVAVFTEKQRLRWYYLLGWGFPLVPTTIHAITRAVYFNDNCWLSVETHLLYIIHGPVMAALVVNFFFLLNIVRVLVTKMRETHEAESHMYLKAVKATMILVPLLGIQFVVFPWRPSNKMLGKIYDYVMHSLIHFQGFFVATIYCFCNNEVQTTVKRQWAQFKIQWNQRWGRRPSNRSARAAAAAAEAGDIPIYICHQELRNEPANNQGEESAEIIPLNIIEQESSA
Experimental: The apparent binding affinities were determined using a scintillation proximity assay with beads from PerkinElmer and cell membranes containing the AMY3R or CTRs. […] Membranes were harvested and membranes were prepared and kept at −80 °C until use. The assay was performed in a 384-well Optiplate (PerkinElmer). Membranes were mixed with scintillation proximity assay beads in a 1:1 ratio. […] Samples were analyzed on a TopCounter (Packard). The IC50 values were calculated using GraphPad Prism. See Supporting Information S7: SAR Screening Assay Methods (Binding Assays (Human and Rat)) for more information.
Binding Assays (Human and Rat). Brief descriptions of the methods used to determine binding affinities for SAR analysis are described below. Curves and IC50 values were plotted and calculated in GraphPad Prism using nonlinear regression (one site binding competition analysis), with pIC50 values […]
values were used to calculate the binding affinity ratios in order to express the selectivity of compounds for the AMY3R versus the CTR.
CTR Binding Assay. The binding assay was performed using scintillation proximity assay (SPA) beads (RPNQ0001) from PerkinElmer and cell membranes containing either the hCTR or rCTR. BHK […]
Membranes were prepared in the following way: the cells were rinsed with PBS and incubated with Versene for approximately 5 min before harvesting. The cells were flushed with PBS and the cell-suspension was centrifuged for 5 min at 1000 rpm. Cells were homogenized (Ultra Turrax) in a buffer […]
containing 20 mM Na-HEPES and 0.1 mM EDTA (pH 7.4, buffer 2). The resulting pellet was re-suspended in buffer 2 and protein concentration was measured (BCA protein assay, Pierce). The homogenate was kept cold during the whole procedure. The membranes were stored at –80 °C until […]
The binding assay was performed in a 384-well Optiplate (PerkinElmer) in a total volume of 40 μL.
Membranes were mixed with SPA beads in a 1:1 ratio. […]
mg/well. Test compounds were dissolved in DMSO and further diluted in assay buffer (50 mM HEPES, pH 7.4, 1 mM CaCl2, 5 mM MgCl2, 0.1% ovalbumin, and 0.02% Tween-20).
Calcitonin (NEX422 PerkinElmer) was dissolved in assay buffer and added to the Optiplate at a final […]
prior to centrifugation (1500 rpm, 10 min). Samples were analyzed on TopCounter (Packard).

hCTR [2] = target: T2, hCTR; test: cAMP-responsive element luciferase reporter assay, human CTR; format: cell-based; conditions: luciferase (human receptor assay)
rats = test: Acute food intake in rats; format: in vivo, rat; conditions: single sc injection of 30 nmol/kg, relative to vehicle, mean ± SEM, n = 5–7 per group

Row | Structure (SMILES) | ratio rCTR/rAMY3R (rat AMY3R) | hCTR pIC50 (hCTR [1]) | pIC50 (hCTR [1]; SPA, BHK cell membranes, 125I-Calcitonin 75 pM, 120 min 25 °C, read-out: hCTR IC50) | EC50 (hCTR [2]; Tables S12 and S14, read-out: hCTR pEC50 (converted)) [nM] | pEC50 (hCTR [2]; BHK cells stably expressing hCTR and CRE-luciferase, 3 h, 37 °C, 10% FBS, read-out: hCTR EC50) | Acute food intake reduction 24–48 h (rats) [%] | hCTR pEC50 (hCTR [2]; Tables S12 and S14) | Acute food intake reduction 0–24 h (rats) [%]
1 | CC[C@H](C)[C@H](NC(=O)[C@H](C)NC(=O)CNC(=O)[C@H](Cc1ccccc1)NC(=O)[C@H](CC(N)=O)NC(=O)[C@@H]1CCCN1C(=O)[C@H](CO)NC(=O)[C@H](CO)NC(=O)[C@H](Cc1c[nH]cn1)NC(=O)[C@H](CCCNC(=N)N)NC(=O)[C@H](CC(C)C)NC(=O)[C@H](Cc1ccccc1)NC(=O)[C@H](CC(=O)O)NC(=O)[C@H](C)NC(=O)[C@H](CC(C)C)NC(=O)[C@H](CCCNC(=N)N)NC(=O)[C@H](CCC(N)=O)NC(=O)[C@@H](NC(=O)[C@H](C)NC(=O)[C@@H]1CSSC[C@H](NC(=O)[C@@H](N)CCCCNC(=O)CC[C@H](NC(=O)CC[C@H](NC(=O)CCCCCCCCCCCCCCCCCCC(=O)O)C(=O)O)C(=O)O)C(=O)N[C@@H](CC(N)=O)C(=O)N[C@@H]([C@@H](C)O)C(=O)N[C@@H](C)C(=O)N[C@@H]([C@@H](C)O)C(=O)N1)[C@@H](C)O)C(=O)N1CCC[C@H]1C(=O)N[C@@H](CO)C(=O)N[C@@H](CO)C(=O)N[C@H](C(=O)N[C@@H](CC(N)=O)C(=O)N[C@H](C(=O)NCC(=O)N[C@@H](CO)C(=O)N[C@@H](CC(=O)O)C(=O)N[C@H](C(=O)N[C@@H](Cc1ccc(O)cc1)C(N)=O)[C@@H](C)O)C(C)C)[C@@H](C)O [Peptide 6] (H-K([γGlu-γGlu-C20 diacid])CNTATCATQRLADFLRHSSPNFGAIPSSTNVGSDTY-NH2; disulfide 2-7) | 1338 | 7.71 | 7.71 |  |  |  |  | 
2 | CC[C@H](C)[C@H](NC(=O)[C@H](C)NC(=O)CNC(=O)[C@H](Cc1ccccc1)NC(=O)[C@H](CC(N)=O)NC(=O)[C@@H]1CCCN1C(=O)[C@H](CO)NC(=O)[C@H](CO)NC(=O)[C@H](Cc1c[nH]cn1)NC(=O)[C@H](CCCNC(=N)N)NC(=O)[C@H](CC(C)C)NC(=O)[C@H](Cc1ccccc1)NC(=O)[C@H](CCC(=O)O)NC(=O)[C@H](C)NC(=O)[C@H](CC(C)C)NC(=O)[C@H](CCCNC(=N)N)NC(=O)[C@H](CCC(N)=O)NC(=O)[C@@H](NC(=O)[C@H](C)NC(=O)[C@@H]1CSSC[C@H](NC(=O)[C@H](CCCCN)NC(=O)CC[C@H](NC(=O)CCCCCCCCCCCCCCCCCCC(=O)O)C(=O)O)C(=O)N[C@@H](CC(N)=O)C(=O)N[C@@H]([C@@H](C)O)C(=O)N[C@@H](C)C(=O)N[C@@H]([C@@H](C)O)C(=O)N1)[C@@H](C)O)C(=O)N1CCC[C@H]1C(=O)N[C@@H](CO)C(=O)N[C@@H](CO)C(=O)N[C@H](C(=O)N[C@@H](CC(N)=O)C(=O)N[C@H](C(=O)NCC(=O)N1CCC[C@H]1C(=O)N[C@@H](CC(N)=O)C(=O)N[C@H](C(=O)N[C@@H](Cc1ccc(O)cc1)C(N)=O)[C@@H](C)O)C(C)C)[C@@H](C)O [Peptide 12] ({C20 diacid-γGlu}-KCNTATCATQRLAEFLRHSSPNFGAIPSSTNVGPNTY-NH2; disulfide 2-7) |  | 8.96 |  | 0.316 | 9.50 | 7 ± 7 |  | 
3 | CC[C@H](C)[C@H](NC(=O)[C@H](C)NC(=O)CNC(=O)[C@H](Cc1ccccc1)NC(=O)[C@H](CC(N)=O)NC(=O)[C@@H]1CCCN1C(=O)[C@H](CO)NC(=O)[C@H](CO)NC(=O)[C@H](Cc1c[nH]cn1)NC(=O)[C@H](CCCNC(=N)N)NC(=O)[C@H](CC(C)C)NC(=O)[C@H](Cc1ccccc1)NC(=O)[C@H](CC(N)=O)NC(=O)[C@H](C)NC(=O)[C@H](CC(C)C)NC(=O)[C@H](CCCNC(=N)N)NC(=O)[C@H](CCC(N)=O)NC(=O)[C@@H](NC(=O)[C@H](C)NC(=O)[C@@H]1CSSC[C@H](NC(=O)[C@H](CCCCN)NC(=O)CC[C@H](NC(=O)CCCCCCCCCCCCCCCCCCC(=O)O)C(=O)O)C(=O)N[C@@H](CC(N)=O)C(=O)N[C@@H]([C@@H](C)O)C(=O)N[C@@H](C)C(=O)N[C@@H]([C@@H](C)O)C(=O)N1)[C@@H](C)O)C(=O)N1CCC[C@H]1C(=O)N[C@@H](CO)C(=O)N[C@@H](CO)C(=O)N[C@H](C(=O)N[C@@H](CC(N)=O)C(=O)N[C@H](C(=O)NCC(=O)N[C@@H](CCCNC(=N)N)C(=O)N[C@@H](CC(N)=O)C(=O)N[C@H](C(=O)N[C@@H](Cc1ccc(O)cc1)C(N)=O)[C@@H](C)O)C(C)C)[C@@H](C)O [Peptide 16] |  | 7.71 |  |  |  | 4 ± 5 | 8.60 | 32 ± 4
4 | CC[C@H](C)[C@H](NC(=O)[C@H](C)NC(=O)CNC(=O)[C@H](Cc1ccccc1)NC(=O)[C@H](CC(N)=O)NC(=O)[C@@H]1CCCN1C(=O)[C@H](CO)NC(=O)[C@H](CO)NC(=O)[C@H](Cc1c[nH]cn1)NC(=O)[C@H](CCCNC(=N)N)NC(=O)[C@H](CC(C)C)NC(=O)[C@H](Cc1ccccc1)NC(=O)[C@H](CC(N)=O)NC(=O)[C@H](C)NC(=O)[C@H](CC(C)C)NC(=O)[C@H](CCCNC(=N)N)NC(=O)[C@H](CCC(N)=O)NC(=O)[C@@H](NC(=O)[C@H](C)NC(=O)[C@@H]1CSSC[C@H](NC(=O)[C@H](CCCCN)NC(=O)COCCOCCNC(=O)CC[C@H](NC(=O)CCCCCCCCCCCCCCCCCCC(=O)O)C(=O)O)C(=O)N[C@@H](CC(N)=O)C(=O)N[C@@H]([C@@H](C)O)C(=O)N[C@@H](C)C(=O)N[C@@H]([C@@H](C)O)C(=O)N1)[C@@H](C)O)C(=O)N1CCC[C@H]1C(=O)N[C@@H](CO)C(=O)N[C@@H](CO)C(=O)N[C@H](C(=O)N[C@@H](CC(N)=O)C(=O)N[C@H](C(=O)NCC(=O)N[C@@H](CO)C(=O)N[C@@H](Cc1c[nH]cn1)C(=O)N[C@H](C(=O)N[C@@H](Cc1ccc(O)cc1)C(N)=O)[C@@H](C)O)C(C)C)[C@@H](C)O [Peptide 18] ({C20 diacid-γGlu-AEEA}-KCNTATCATQRLANFLRHSSPNFGAIPSSTNVGSHTY-NH2; disulfide 2-7; N-terminus assumed) |  |  |  |  |  | 3 ± 6 |  | 
